Laboratory results from ChEMBL document CHEMBL4813955 (Eur J Med Chem, 2021).
Active and inactive are the calls of the source. The rule behind the calls is not given here.

Experiments:
D(2) dopamine receptor = D(2) dopamine receptor (Homo sapiens, UniProt P14416); test: Displacement of [3H]N-methylspiperone from human dopamine D2 receptor at 10 uM incubated for 1 hr by liquid scintillation counting method
[1] = molecular target: T1, 5-hydroxytryptamine receptor 2C (Homo sapiens) (UniProt P28335); test: Displacement of [3H]-Mesulergine from human 5-HT2C receptor at 10 uM incubated for 1 hr by liquid scintillation counting method
T1 sequence (whole entry): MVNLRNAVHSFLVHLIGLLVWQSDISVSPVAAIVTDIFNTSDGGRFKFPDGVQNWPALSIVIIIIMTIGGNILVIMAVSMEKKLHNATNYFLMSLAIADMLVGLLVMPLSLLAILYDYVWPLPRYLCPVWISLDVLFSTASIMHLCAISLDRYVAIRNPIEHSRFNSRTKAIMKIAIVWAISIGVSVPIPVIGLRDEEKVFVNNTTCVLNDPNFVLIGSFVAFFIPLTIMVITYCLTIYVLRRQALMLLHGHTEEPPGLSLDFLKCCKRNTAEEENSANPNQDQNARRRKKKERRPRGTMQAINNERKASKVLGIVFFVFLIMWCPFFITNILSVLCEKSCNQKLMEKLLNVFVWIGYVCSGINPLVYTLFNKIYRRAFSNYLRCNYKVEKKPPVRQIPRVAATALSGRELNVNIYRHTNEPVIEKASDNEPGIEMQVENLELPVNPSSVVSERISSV

D(3) dopamine receptor = D(3) dopamine receptor (Homo sapiens, UniProt P35462); test: Displacement of [3H]N-methylspiperone from human dopamine D3 receptor at 10 uM incubated for 1 hr by liquid scintillation counting method
Chain of D(3) dopamine receptor (P35462 whole entry): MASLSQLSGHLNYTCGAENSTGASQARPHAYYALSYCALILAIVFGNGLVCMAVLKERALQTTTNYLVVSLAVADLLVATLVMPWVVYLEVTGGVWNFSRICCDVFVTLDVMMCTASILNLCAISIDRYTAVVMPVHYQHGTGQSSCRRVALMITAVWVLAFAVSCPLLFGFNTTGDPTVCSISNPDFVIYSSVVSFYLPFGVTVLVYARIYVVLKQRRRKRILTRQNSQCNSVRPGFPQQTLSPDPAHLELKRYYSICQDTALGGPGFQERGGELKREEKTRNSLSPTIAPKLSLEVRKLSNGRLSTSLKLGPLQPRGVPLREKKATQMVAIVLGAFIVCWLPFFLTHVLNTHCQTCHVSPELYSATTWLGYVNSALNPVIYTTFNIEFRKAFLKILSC

[2] = molecular target: T2, D(4) dopamine receptor (Homo sapiens) (UniProt P21917); test: Displacement of [3H]N-methylspiperone from human dopamine D4 receptor at 10 uM incubated for 1 hr by liquid scintillation counting method
T2 sequence (whole entry): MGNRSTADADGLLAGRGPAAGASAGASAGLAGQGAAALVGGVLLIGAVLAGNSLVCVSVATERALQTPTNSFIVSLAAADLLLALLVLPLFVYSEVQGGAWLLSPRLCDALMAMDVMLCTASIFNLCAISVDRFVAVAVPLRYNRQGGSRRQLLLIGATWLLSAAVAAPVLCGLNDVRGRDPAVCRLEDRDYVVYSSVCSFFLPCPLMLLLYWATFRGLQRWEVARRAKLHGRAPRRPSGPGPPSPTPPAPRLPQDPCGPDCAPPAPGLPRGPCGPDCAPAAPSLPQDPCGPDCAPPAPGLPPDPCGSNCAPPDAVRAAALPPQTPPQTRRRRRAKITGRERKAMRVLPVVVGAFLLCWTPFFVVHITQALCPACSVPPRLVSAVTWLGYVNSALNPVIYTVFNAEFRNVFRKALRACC

Chain of D(2) dopamine receptor (P14416 whole entry): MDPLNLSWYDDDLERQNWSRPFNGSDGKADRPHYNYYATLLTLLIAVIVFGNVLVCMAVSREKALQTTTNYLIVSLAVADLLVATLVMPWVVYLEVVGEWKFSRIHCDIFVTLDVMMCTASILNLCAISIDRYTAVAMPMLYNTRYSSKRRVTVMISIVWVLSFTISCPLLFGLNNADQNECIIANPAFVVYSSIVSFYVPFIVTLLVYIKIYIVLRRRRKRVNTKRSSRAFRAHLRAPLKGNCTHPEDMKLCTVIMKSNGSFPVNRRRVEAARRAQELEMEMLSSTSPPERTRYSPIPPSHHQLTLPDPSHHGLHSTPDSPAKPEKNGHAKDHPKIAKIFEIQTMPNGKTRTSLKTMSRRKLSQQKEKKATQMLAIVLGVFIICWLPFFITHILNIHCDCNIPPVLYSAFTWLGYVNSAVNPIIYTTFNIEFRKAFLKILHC

| SMILES | inhibition (D(2) dopamine receptor) | inhibition [1] | other results |
| --- | --- | --- | --- |
| O=C1c2ccc(F)cc2CC1CCN1CCN(c2ccccn2)CC1 (stereo not given) | inactive | inactive |  |
| O=C1CCc2cc(OCCCN3CCN(c4ccccn4)CC3)ccc21 | inactive |  |  |
| O=C1c2ccc(Cl)cc2CC1CCN1CCN(c2ccccn2)CC1 (stereo not given) | inactive |  | inhibition (D(3) dopamine receptor): inactive |
| O=C1CCc2cc(OCCCN3CCCN(c4ccccn4)CC3)ccc2N1 |  |  | inhibition [2]: inactive |
| OC1c2ccc(F)cc2CC1CCN1CCN(c2ccccn2)CC1 (stereo not given) |  | inactive |  |
| O=C1c2ccc(Cl)cc2CC1CCCN1CCN(c2ccccn2)CC1 (stereo not given) | inactive |  |  |
| Nc1ccc(CCCCN2CCN(c3ccccn3)CC2)cc1 |  | inactive |  |
| O=C1CCc2cc(C(=O)CCCN3CCN(c4ccccn4)CC3)ccc2N1 |  | inactive |  |
